Reference: publication PMC11240878, “Synthesis, enzyme inhibition assay, and molecular modeling study of novel pyrazolines linked to 4-methylsulfonylphenyl scaffold: antitumor activity and cell cycle analysis” (RSC Advances, 2024)

Tests used:
[1] = tested on: RPMI-8226; assay: NCI single-dose GI%, leukemia; format: cell-based, human; conditions: RPMI-8226, leukemia; 10.0 μM in one dose
[2] = biological target: EGFR (Homo sapiens, UniProt P00533); assay: EGFR tyrosine kinase inhibition assay
[3] = tested on: A549/ATCC; assay: NCI single-dose GI%, NSC lung; format: cell-based, human; conditions: 10.0 μM in one dose
[4] = tested on: OVCAR-8; assay: NCI single-dose GI%, ovarian; format: cell-based, human; conditions: OVCAR-8, ovarian; 10.0 μM in one dose
[5] = tested on: breast adenocarcinoma MCF-7; assay: cells; conditions: Homo sapiens, MCF7, 48 h, read-out: In vitro cytotoxicity IC50, MCF-7; MTT, 48 h drug exposure; mean ± SD of three experiments
[6] = tested on: PC-3; assay: NCI single-dose GI%, prostate; format: cell-based, human; conditions: PC-3, prostate; 10.0 μM in one dose
[7] = tested on: SNB-75; assay: NCI single-dose GI%, CNS; format: cell-based, human; conditions: SNB-75, CNS; 10.0 μM in one dose
[8] = biological target: T1, COX-2 (Ovis aries, UniProt P79208); assay: Colorimetric COX-2 inhibition assay
T1 sequence (P79208 17-603): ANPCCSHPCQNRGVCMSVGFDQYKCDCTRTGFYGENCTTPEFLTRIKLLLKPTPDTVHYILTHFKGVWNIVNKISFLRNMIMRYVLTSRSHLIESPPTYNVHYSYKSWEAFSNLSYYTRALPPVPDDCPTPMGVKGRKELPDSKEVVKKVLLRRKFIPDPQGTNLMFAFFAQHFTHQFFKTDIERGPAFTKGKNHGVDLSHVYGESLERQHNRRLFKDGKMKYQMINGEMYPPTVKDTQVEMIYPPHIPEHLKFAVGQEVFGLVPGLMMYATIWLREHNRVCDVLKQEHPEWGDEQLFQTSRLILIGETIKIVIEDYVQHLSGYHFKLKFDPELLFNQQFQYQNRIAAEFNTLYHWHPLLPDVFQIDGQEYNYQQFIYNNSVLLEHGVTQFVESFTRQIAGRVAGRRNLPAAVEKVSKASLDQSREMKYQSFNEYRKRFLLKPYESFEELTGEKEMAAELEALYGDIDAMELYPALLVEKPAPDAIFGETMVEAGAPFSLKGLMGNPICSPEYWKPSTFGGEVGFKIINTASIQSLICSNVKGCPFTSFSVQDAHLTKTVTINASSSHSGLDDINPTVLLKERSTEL

[9] = tested on: KM12; assay: NCI single-dose GI%, colon; format: cell-based, human; conditions: 10.0 μM in one dose
[10] = tested on: NCI-H460; assay: NCI single-dose GI%, NSC lung; format: cell-based, human; conditions: 10.0 μM in one dose
[11] = tested on: NCI/ADR-RES; assay: NCI single-dose GI%, ovarian; format: cell-based, human; conditions: 10.0 μM in one dose
[12] = tested on: SR; assay: NCI single-dose GI%, leukemia; format: cell-based, human; conditions: 10.0 μM in one dose
[13] = tested on: SK-MEL-5; assay: NCI single-dose GI%, melanoma; format: cell-based, human; conditions: SK-MEL-5, melanoma; 10.0 μM in one dose
[14] = tested on: OVCAR-3; assay: NCI single-dose GI%, ovarian; format: cell-based, human; conditions: OVCAR-3, ovarian; 10.0 μM in one dose
[15] = tested on: NCI-H23; assay: NCI single-dose GI%, NSC lung; format: cell-based, human; conditions: 10.0 μM in one dose
[16] = tested on: LOX IMVI; assay: NCI single-dose GI%, melanoma; format: cell-based, human; conditions: 10.0 μM in one dose
[17] = tested on: M14; assay: NCI single-dose GI%, melanoma; format: cell-based, human; conditions: 10.0 μM in one dose
[18] = tested on: NCI-H322M; assay: NCI single-dose GI%, NSC lung; format: cell-based, human; conditions: 10.0 μM in one dose
[19] = tested on: UACC-62; assay: NCI single-dose GI%, melanoma; format: cell-based, human; conditions: UACC-62, melanoma; 10.0 μM in one dose
[20] = tested on: SK-MEL-2; assay: NCI single-dose GI%, melanoma; format: cell-based, human; conditions: SK-MEL-2, melanoma; 10.0 μM in one dose
[21] = tested on: ACHN; assay: NCI single-dose GI%, renal; format: cell-based, human; conditions: 10.0 μM in one dose
[22] = tested on: IGROV1; assay: NCI single-dose GI%, ovarian; format: cell-based, human; conditions: 10.0 μM in one dose
[23] = tested on: OVCAR-4; assay: NCI single-dose GI%, ovarian; format: cell-based, human; conditions: OVCAR-4, ovarian; 10.0 μM in one dose
[24] = tested on: SW-620; assay: NCI single-dose GI%, colon; format: cell-based, human; conditions: SW-620, colon; 10.0 μM in one dose
[25] = tested on: MALME-3M; assay: NCI single-dose GI%, melanoma; format: cell-based, human; conditions: 10.0 μM in one dose
[26] = tested on: SF-268; assay: NCI single-dose GI%, CNS; format: cell-based, human; conditions: SF-268, CNS; 10.0 μM in one dose
[27] = tested on: MDA-MB-231/ATCC; assay: NCI single-dose GI%, breast; format: cell-based, human; conditions: 10.0 μM in one dose
[28] = tested on: HCT-116; assay: NCI single-dose GI%, colon; format: cell-based, human; conditions: HCT-116, colon; 10.0 μM in one dose
[29] = tested on: SK-MEL-28; assay: NCI single-dose GI%, melanoma; format: cell-based, human; conditions: SK-MEL-28, melanoma; 10.0 μM in one dose
[30] = tested on: MDA-MB-468; assay: NCI single-dose GI%, breast; format: cell-based, human; conditions: MDA-MB-468, breast; 10.0 μM in one dose
[31] = tested on: SF-295; assay: NCI single-dose GI%, CNS; format: cell-based, human; conditions: SF-295, CNS; 10.0 μM in one dose
[32] = tested on: 786-0; assay: NCI single-dose GI%, renal; format: cell-based, human; conditions: 786-0, renal; 10.0 μM in one dose
[33] = tested on: HCT-15; assay: NCI single-dose GI%, colon; format: cell-based, human; conditions: HCT-15, colon; 10.0 μM in one dose
[34] = tested on: SNB-19; assay: NCI single-dose GI%, CNS; format: cell-based, human; conditions: SNB-19, CNS; 10.0 μM in one dose
[35] = tested on: TK-10; assay: NCI single-dose GI%, renal; format: cell-based, human; conditions: TK-10, renal; 10.0 μM in one dose
[36] = tested on: CCRF-CEM; assay: NCI single-dose GI%, leukemia; format: cell-based, human; conditions: 10.0 μM in one dose

EGFR, sequence (P00533 25-1210): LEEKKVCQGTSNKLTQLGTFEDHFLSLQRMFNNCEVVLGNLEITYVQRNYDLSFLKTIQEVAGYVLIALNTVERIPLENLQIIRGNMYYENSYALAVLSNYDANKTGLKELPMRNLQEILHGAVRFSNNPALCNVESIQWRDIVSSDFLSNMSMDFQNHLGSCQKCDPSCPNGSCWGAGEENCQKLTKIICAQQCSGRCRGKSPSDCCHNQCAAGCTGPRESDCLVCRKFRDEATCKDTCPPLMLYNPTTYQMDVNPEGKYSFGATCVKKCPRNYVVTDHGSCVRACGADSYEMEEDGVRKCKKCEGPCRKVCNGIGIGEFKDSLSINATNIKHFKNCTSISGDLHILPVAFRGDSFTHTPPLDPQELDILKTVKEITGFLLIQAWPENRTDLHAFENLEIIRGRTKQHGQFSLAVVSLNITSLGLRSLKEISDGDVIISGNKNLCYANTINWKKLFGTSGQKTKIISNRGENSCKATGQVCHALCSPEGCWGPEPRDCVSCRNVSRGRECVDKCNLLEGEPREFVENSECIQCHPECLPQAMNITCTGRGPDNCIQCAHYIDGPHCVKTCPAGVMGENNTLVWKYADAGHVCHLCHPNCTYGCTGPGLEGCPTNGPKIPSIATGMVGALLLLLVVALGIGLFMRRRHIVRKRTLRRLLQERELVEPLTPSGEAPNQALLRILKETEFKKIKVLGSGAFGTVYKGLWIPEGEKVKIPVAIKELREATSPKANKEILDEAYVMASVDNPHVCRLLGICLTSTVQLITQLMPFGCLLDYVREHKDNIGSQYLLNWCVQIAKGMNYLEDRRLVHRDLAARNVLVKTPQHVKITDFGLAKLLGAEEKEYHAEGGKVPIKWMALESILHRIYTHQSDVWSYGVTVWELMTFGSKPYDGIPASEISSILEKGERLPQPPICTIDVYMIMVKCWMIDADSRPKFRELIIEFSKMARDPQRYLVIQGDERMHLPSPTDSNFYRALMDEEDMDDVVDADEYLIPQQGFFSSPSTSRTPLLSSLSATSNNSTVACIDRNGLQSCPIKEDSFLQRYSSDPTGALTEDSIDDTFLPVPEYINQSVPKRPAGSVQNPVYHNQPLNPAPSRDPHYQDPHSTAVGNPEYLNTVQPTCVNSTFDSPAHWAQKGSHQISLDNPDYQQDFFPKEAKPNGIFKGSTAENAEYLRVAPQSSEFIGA

Structure (SMILES) | GI% [1] [%] | IC50 [2] [µM] | GI% [3] [%] | GI% [4] [%] | IC50 [5] [µM] | GI% [6] [%] | GI% [7] [%] | IC50 [8] [µM] | GI% [9] [%] | GI% [10] [%] | GI% [11] [%] | GI% [12] [%] | GI% [13] [%] | GI% [14] [%] | GI% [15] [%] | GI% [16] [%] | GI% [17] [%] | GI% [18] [%] | GI% [19] [%] | GI% [20] [%] | other results
CS(=O)(=O)c1ccc(C(=O)N2N=C(c3ccccc3)CC2c2ccc(F)cc2)cc1 (centres unmarked) [Compound 18c, (5-(4-Fluorophenyl)-3-phenyl-4,5-dihydro-1H-pyrazol-1-yl)(4-(methylsulfonyl)phenyl)methanone] | 20 | 1.12 ± 0.037 | 32 | 20 | 16.2 ± 0.72 | 17 | 14 | 127 ± 8.23 |  |  |  |  |  |  |  |  |  |  |  |  | 
Cc1ccc(C2=NN(C(=O)c3ccc(S(C)(=O)=O)cc3)C(c3ccc(C)cc3)C2)cc1 (centres unmarked) [Compound 18g, (3,5-Bis(4-tolyl)-4,5-dihydro-1H-pyrazol-1-yl)(4-(methylsulfonyl)phenyl)methanone] |  | 1.02 ± 0.034 | 43 |  | 11.7 ± 0.96 | 33 | 30 | 94 ± 4.41 | 37 | 17 | 38 | 50 | 38 | 24 | 12 | 16 | 32 | 12 | 36 | 33 | GI% [21]: 12%; GI% [22]: 23%; GI% [23]: 22%; GI% [24]: 25%; GI% [25]: 14%; GI% [26]: 11%; GI% [27]: 14%; GI% [28]: 37%; GI% [29]: 23%; GI% [30]: 45%; GI% [31]: 30%; GI% [32]: 22%; GI% [33]: 45%; GI% [34]: 13%
CS(=O)(=O)c1ccc(C(=O)N2N=C(c3ccccc3)CC2c2ccccc2O)cc1 (centres unmarked) [Compound 18h, (5-(2-Hydroxyphenyl)-3-phenyl-4,5-dihydro-1H-pyrazol-1-yl)(4-(methylsulfonyl)phenyl)methanone] | 16 | 0.574 ± 0.019 | 45 | 41 | 12.4 | 21 |  | 19.3 ± 0.72 | 21 | 54 | 22 | 30 | 38 | 35 | 12 | 34 | 29 | 48 | 12 | 28 | GI% [35]: 25%; GI% [21]: 25%; GI% [22]: 28%; GI% [23]: 22%; GI% [25]: 21%; GI% [36]: 41%; GI% [26]: 39%; GI% [27]: 32%; GI% [28]: 35%; GI% [29]: 11%; GI% [30]: 17%; GI% [31]: 23%; GI% [32]: 33%; GI% [33]: 56%; GI% [34]: 17%
